For 12 compounds, EC50 results are on record in patent publication US9499550B2 (BRISTOL-MYERS SQUIBB COMPANY, priority 2012, dated 2016).

Assay [1] relates to HCV genotype 1b (Con1) replicon in HUH-7 cells. Kind of assay: HCV replicon luciferase reporter assay, genotype 1b. In kind it is cell-based. Particulars: Hepatitis C virus, Huh-7, 72 h, HCV genotype 1b replicon luciferase assay, 3 days incubation, range class, read-out: LE_1b (EC50, range). Put shortly: (§1)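 Replicon inhibition for both genotypes was measured as Renilla luciferase signal (EnduRen, 7.5 μM final, 2 h) after 3-day, 37° C exposure of replicon-bearing HUH-7 cells in 4% FCS DMEM, 0.5% DMSO. The 1b construct carries S1179I; the 1a H77 construct carries P1496L and S2204I. Twenty-point, 3-fold dilutions were fitted four-parametrically for EC50, and CC50 was taken from multiplexed Cell Titer-Blue.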
(A replicon is a self-replicating genome or part of one, used to study replication in cells.)

The test system of assay [2] is HCV genotype 1a (H77 strain) replicon in HUH-7 cells. The assay can be described thus: HCV replicon luciferase reporter assay, genotype 1a. In kind it is cell-based. Particulars: Hepatitis C virus, Huh-7, 72 h, HCV genotype 1a replicon luciferase assay, 3 days incubation, range class, read-out: LE_1a (EC50, range). The method, boiled down: as §1

A value given as a limit tells only on which side of the number the result lay.

Usually EC50 stands for the concentration that produces a half-maximal response. Take `COCCOc1cnc(O[C@@H]2C[C@H]3C(=O)N[C@]4(C(=O)NS(=O)(=O)C5CC5)C[C@H]4/C=C\CC[C@@H](C)C[C@@H](C)[C@H](NC(=O)OC4COC4)C(=O)N3C2)c2ccc(OC)cc12` [Compound 1159, oxetan-3-yl ((2R,6S,7R,9R,13aS,14aR,16aS,Z)-14a-((cyclopropylsulfonyl)carbamoyl)-2-((6-methoxy-4-(2-methoxyethoxyl)isoquinolin-1-yl)oxy)-7,9-dimethyl-5,16-dioxo-1,2,3,5,6,7,8,9,10,11,13a,14,14a,15,16,16a-hexadecahydrocyclopropa[e]pyrrolo[1,2-a][1,4]diazacyclopentadecin-6-yl)carbamate]: the EC50 in assay [1] and in assay [2] was 4.82 to 103 nM throughout.
Regarding `COc1cnc(O[C@@H]2C[C@H]3C(=O)N[C@]4(C(=O)NS(=O)(=O)C5CC5)C[C@H]4/C=C\CC[C@H](C)C[C@@H](C)[C@H](NC(=O)OC(C)(C)C)C(=O)N3C2)c2cc(Cl)ccc12` [Compound 1160, tert-butyl ((2R,6S,7R,9S,13aS,14aR,16aS,Z)-2-((7-chloro-4-methoxyisoquinolin-1-yl)oxy)-14a-((cyclopropylsulfonyl)carbamoyl)-7,9-dimethyl-5,16-dioxo-1,2,3,5,6,7,8,9,10,11,13a,14,14a,15,16,16a-hexadecahydrocyclopropa[e]pyrrolo[1,2-a][1,4]diazacyclopentadecin-6-yl)carbamate], the results for the 50% effective concentration (EC50) in assay [1] and in assay [2] were < 5.46 nM and 4.82 to 103 nM, respectively.
Taken in the same sequence, the figures for `COc1cnc(O[C@@H]2C[C@H]3C(=O)N[C@]4(C(=O)NS(=O)(=O)C5CC5)C[C@H]4/C=C\CC[C@@H](C)C[C@@H](C)[C@H](NC(=O)OC(C)(C)C)C(=O)N3C2)c2cc(Cl)ccc12` [Compound 1161, tert-butyl ((2R,6S,7R,9R,13aS,14aR,16aS,Z)-2-((7-chloro-4-methoxyisoquinolin-1-yl)oxy)-14a-((cyclopropylsulfonyl)carbamoyl)-7,9-dimethyl-5,16-dioxo-1,2,3,5,6,7,8,9,10,11,13a,14,14a,15,16,16a-hexadecahydrocyclopropa[e]pyrrolo[1,2-a][1,4]diazacyclopentadecin-6-yl)carbamate] were < 5.46 nM and < 5.46 nM.
For `COc1ccc2c(O[C@@H]3C[C@H]4C(=O)N[C@]5(C(=O)NS(=O)(=O)C6(CF)CC6)C[C@H]5/C=C\CC[C@H](C)C[C@@H](C)[C@H](NC(=O)OC(C)(C)C)C(=O)N4C3)nc(Cl)cc2c1` [Compound 1162, tert-butyl ((2R,6S,7R,9S,13aS,14aR,16aS,Z)-2-((3-chloro-6-methoxyisoquinolin-1-yl)oxy)-14a-(((1-(fluoromethyl)cyclopropyl)sulfonyl)carbamoyl)-7,9-dimethyl-5,16-dioxo-1,2,3,5,6,7,8,9,10,11,13a,14,14a,15,16,16a-hexadecahydrocyclopropa[e]pyrrolo[1,2-a][1,4]diazacyclopentadecin-6-yl)carbamate], in that order: 4.82 to 103 nM and 4.82 to 103 nM.
Consider `COc1ccc2c(O[C@@H]3C[C@H]4C(=O)N[C@]5(C(=O)NS(=O)(=O)C6(CF)CC6)C[C@H]5/C=C\CC[C@@H](C)C[C@@H](C)[C@H](NC(=O)OC(C)(C)C)C(=O)N4C3)nc(Cl)cc2c1` [Compound 1163, tert-butyl ((2R,6S,7R,9R,13aS,14aR,16aS,Z)-2-((3-chloro-6-methoxyisoquinolin-1-yl)oxy)-14a-(((1-(fluoromethyl)cyclopropyl)sulfonyl)carbamoyl)-7,9-dimethyl-5,16-dioxo-1,2,3,5,6,7,8,9,10,11,13a,14,14a,15,16,16a-hexadecahydrocyclopropa[e]pyrrolo[1,2-a][1,4]diazacyclopentadecin-6-yl)carbamate], for which the EC50 in assay [1] and in assay [2] was < 5.46 nM in each case.
On to `COc1ccc2c(O[C@@H]3C[C@H]4C(=O)N[C@]5(C(=O)NS(=O)(=O)C6(CF)CC6)C[C@H]5/C=C\CC[C@H](C)C[C@@H](C)[C@H](NC(=O)OC(C)(C)C(F)(F)F)C(=O)N4C3)nc(Cl)cc2c1` [Compound 1164, 1,1,1-trifluoro-2-methylpropan-2-yl((2R,6S,7R,9S,13aS,14aR,16aS,Z)-2-((3-chloro-6-methoxyisoquinolin-1-yl)oxy)-14a-(((1-(fluoromethyl)cyclopropyl)sulfonyl)carbamoyl)-7,9-dimethyl-5,16-dioxo-1,2,3,5,6,7,8,9,10,11,13a,14,14a,15,16,16a-hexadecahydrocyclopropa[e]pyrrolo[1,2-a][1,4]diazacyclopentadecin-6-yl)carbamate], for which the EC50 in assay [1] and in assay [2] was 4.82 to 103 nM throughout.
On to `COc1ccc2c(O[C@@H]3C[C@H]4C(=O)N[C@]5(C(=O)NS(=O)(=O)C6(CF)CC6)C[C@H]5/C=C\CC[C@@H](C)C[C@@H](C)[C@H](NC(=O)OC(C)(C)C(F)(F)F)C(=O)N4C3)nc(Cl)cc2c1` [Compound 1165, 1,1,1-trifluoro-2-methylpropan-2-yl((2R,6S,7R,9R,13aS,14aR,16aS,Z)-2-((3-chloro-6-methoxyisoquinolin-1-yl)oxy)-14a-(((1-(fluoromethyl)cyclopropyl)sulfonyl)carbamoyl)-7,9-dimethyl-5,16-dioxo-1,2,3,5,6,7,8,9,10,11,13a,14,14a,15,16,16a-hexadecahydrocyclopropa[e]pyrrolo[1,2-a][1,4]diazacyclopentadecin-6-yl)carbamate], for which the EC50 in assay [1] and in assay [2] was < 5.46 nM each time.
As to `COc1ccc2c(O[C@@H]3C[C@H]4C(=O)N[C@]5(C(=O)NS(=O)(=O)C6(CF)CC6)C[C@H]5/C=C\CC[C@H](C)C[C@@H](C)[C@H](NC(=O)OC(C)(C)C(C)(F)F)C(=O)N4C3)ncc(C(F)(F)F)c2c1` [Compound 1166, 3,3-difluoro-2-methylbutan-2-yl((2R,6S,7R,9S,13aS,14aR,16aS,Z)-14a-(((1-(fluoromethyl)cyclopropyl)sulfonyl)carbamoyl)-2-((6-methoxy-4-(trifluoromethyl)isoquinolin-1-yl)oxy)-7,9-dimethyl-5,16-dioxo-1,2,3,5,6,7,8,9,10,11,13a,14,14a,15,16,16a-hexadecahydrocyclopropa[e]pyrrolo[1,2-a][1,4]diazacyclopentadecin-6-yl)carbamate], the EC50 in assay [1] and in assay [2] was 4.82 to 103 nM throughout.
Turning to `COc1ccc2c(O[C@@H]3C[C@H]4C(=O)N[C@]5(C(=O)NS(=O)(=O)C6(CF)CC6)C[C@H]5/C=C\CC[C@@H](C)C[C@@H](C)[C@H](NC(=O)OC(C)(C)C(C)(F)F)C(=O)N4C3)ncc(C(F)(F)F)c2c1` [Compound 1167, 3,3-difluoro-2-methylbutan-2-yl((2R,6S,7R,9R,13aS,14aR,16aS,Z)-14a-(((1-(fluoromethyl)cyclopropyl)sulfonyl)carbamoyl)-2-((6-methoxy-4-(trifluoromethyl)isoquinolin-1-yl)oxy)-7,9-dimethyl-5,16-dioxo-1,2,3,5,6,7,8,9,10,11,13a,14,14a,15,16,16a-hexadecahydrocyclopropa[e]pyrrolo[1,2-a][1,4]diazacyclopentadecin-6-yl)carbamate], the EC50 in assay [1] and in assay [2] was < 5.46 nM throughout.
In the case of `COc1ccc2c(O[C@@H]3C[C@H]4C(=O)N[C@]5(C(=O)NS(=O)(=O)C6(CF)CC6)C[C@H]5/C=C\CC[C@H](C)C[C@@H](C)[C@H](NC(=O)OC(C)(C)C(F)(F)F)C(=O)N4C3)nc(C(F)(F)F)cc2c1` [Compound 1168, 1,1,1-trifluoro-2-methylpropan-2-yl((2R,6S,7R,9S,13aS,14aR,16aS,Z)-14a-(((1-(fluoromethyl)cyclopropyl)sulfonyl)carbamoyl)-2-((6-methoxy-3-(trifluoromethyl)isoquinolin-1-yl)oxy)-7,9-dimethyl-5,16-dioxo-1,2,3,5,6,7,8,9,10,11,13a,14,14a,15,16,16a-hexadecahydrocyclopropa[e]pyrrolo[1,2-a][1,4]diazacyclopentadecin-6-yl)carbamate], the EC50 in assay [1] and in assay [2] was 4.82 to 103 nM each time.
Take `COc1ccc2c(O[C@@H]3C[C@H]4C(=O)N[C@]5(C(=O)NS(=O)(=O)C6(CF)CC6)C[C@H]5/C=C\CC[C@@H](C)C[C@@H](C)[C@H](NC(=O)OC(C)(C)C(F)(F)F)C(=O)N4C3)nc(C(F)(F)F)cc2c1` [Compound 1169, 1,1,1-trifluoro-2-methylpropan-2-yl((2R,6S,7R,9R,13aS,14aR,16aS,Z)-14a-(((1-(fluoromethyl)cyclopropyl)sulfonyl)carbamoyl)-2-((6-methoxy-3-(trifluoromethyl)isoquinolin-1-yl)oxy)-7,9-dimethyl-5,16-dioxo-1,2,3,5,6,7,8,9,10,11,13a,14,14a,15,16,16a-hexadecahydrocyclopropa[e]pyrrolo[1,2-a][1,4]diazacyclopentadecin-6-yl)carbamate]: the EC50 in assay [1] and in assay [2] was < 5.46 nM throughout.
In the case of `COc1ccc2c(O[C@@H]3C[C@H]4C(=O)N[C@]5(C(=O)NS(=O)(=O)C6(CF)CC6)C[C@H]5/C=C\CC[C@H](C)C[C@@H](C)[C@H](NC(=O)OC(C)(C)C(C)(F)F)C(=O)N4C3)nc(C(F)(F)F)cc2c1` [Compound 1170, 3,3-difluoro-2-methylbutan-2-yl((2R,6S,7R,9S,13aS,14aR,16aS,Z)-14a-(((1-(fluoromethyl)cyclopropyl)sulfonyl)carbamoyl)-2-((6-methoxy-3-(trifluoromethyl)isoquinolin-1-yl)oxy)-7,9-dimethyl-5,16-dioxo-1,2,3,5,6,7,8,9,10,11,13a,14,14a,15,16,16a-hexadecahydrocyclopropa[e]pyrrolo[1,2-a][1,4]diazacyclopentadecin-6-yl)carbamate], the half-maximal effective concentration (EC50) in assay [1] and in assay [2] was 4.82 to 103 nM in each case.
